Results on 3 compounds are retold here after patent US8999953B2, “Cyclodextrin nanotechnology for ophthalmic drug delivery” (Oculis EHF, priority 2005, dated 2015).

Data set [1] can be described thus: Phase-solubility study of dexamethasone with RMβCD or γCD. In kind it is physicochemical. The conditions noted are these: for Phase-solubility diagram type: room temperature. Here is the method: Phase-solubility study was performed to determine the exact amount of RMβCD needed to solubilize dexamethasone in the eye drop medium. An excess amount of dexamethasone was added to aqueous solution containing from 0 to 25% (w/v) RMβCD, benzalkonium chloride (0.02% w/v), EDTA (0.1% w/v), NaCl (0.00 to 0.72% w/v) and HPMC (0.1%). […] The suspensions were allowed to cool to room temperature (22-23° C.) and equilibrate for 7 days. After equilibrium was attained, the suspension was filtered through a 0.45 μm membrane filter, diluted and analyzed by HPLC. […] The phase-solubility was determined to be of AL-type and thus dexamethasone appears to form 1:1 dexamethasone/RMβCD complex in the aqueous eye drop formulation.
Phase-solubility study was performed to determine the exact amount of γCD needed to solubilize dexamethasone. An excess amount of dexamethasone was added to aqueous solution or suspension containing from 0 to 10% (w/v) γCD. […] The suspensions were allowed to cool to room temperature (22-23° C.) and equilibrate for 7 days. After equilibrium was attained, the suspension was filtered through a 0.45 μm membrane filter, and the filtrate diluted and analyzed by HPLC.

Data set [2] in a line: Eye drop formulation properties (osmolarity, viscosity, dissolved dexamethasone). The conditions noted are these: aqueous eye drop suspension with γ-cyclodextrin, aqueous with cosolvent or surfactant or cyclodextrin, thermodynamic from solid; eye drop formulation of EXPERIMENT 4. The class given is physicochemical.
A further data set can be described thus: physchem. The conditions noted are these: aqueous cyclodextrin solution, 22.5 °C, aqueous with cosolvent or surfactant or cyclodextrin, thermodynamic from solid.
Another data set concerns rabbit eye. Kind of data set: Ocular irritation in rabbits following powder administration. The note with it: for Bulbar redness (points) / Discharge (points): drug eye, pure powder, median (range), 0-3 points. In kind it is in vivo. The method, then:
Timolol maleate powder was administered to one eye of each rabbit and the other eye was used as control. Both pure timolol maleate powder and freeze-dried with PVP-polymer (2.4% of mass) were tested in 1.0 mg (n=3) and 0.1 mg (n=6) doses. Additionally, four rabbits received 0.1 mg of the pure powder 3 times a day for 8 days. Redness of bulbar conjunctivae and the amount of discharge were rated from photographs (0-3 points, randomized and masked evaluation). Slitlamp examination was also performed. Hematoxylin-eosin (H&E) stained sections of eyes were examined with a light microscope following the 8 days experiment.

A short description of data set [3]: Solubility of drugs in pure aqueous cyclodextrin solutions at room temperature (Experiment 6). The conditions noted are these: 22-23° C.

≈ marks a conversion by molar mass, not a printed value. Counter-ions that a name gives are not always drawn.

For the compound `C[C@@H]1C[C@H]2[C@@H]3CCC4=CC(=O)C=C[C@]4(C)[C@@]3(F)[C@@H](O)C[C@]2(C)[C@@]1(O)C(=O)CO` [Dexamethasone], the Phase-solubility diagram type entry in data set [1] (aqueous RMβCD (0-25% w/v) eye drop solutions) is listed as “AL-type”; in data set [1] (γCD 0 to 10% (w/v) in pure water) it was “BS-type”. Also, the solubility at 7 days is 5300 µg/mL (≈ 13.5 mM) in data set [1] (aqueous γ-cyclodextrin solution/suspension, 22.5 °C, aqueous with cosolvent or surfactant or cyclodextrin, thermodynamic from solid, pure water containing γ-cyclodextrin, at 5% (w/v) γCD concentration, read-out: Maximum dexamethasone solubility) and 700 to 900 µg/mL (≈ 1.78 to 2.29 mM) in data set [2]. For the same compound, in “physchem”, the solubility amounted to 3000 µg/mL (≈ 7.64 mM).
In the case of `CC(C)(C)NC[C@H](O)COc1nsnc1N1CCOCC1` [Timolol maleate powder, Timolol maleate], the Ocular irritation result in the data set with rabbit eye (0.1 mg) is listed as “negligible ocular irritation”. The “Slitlamp examination, surface photographs and histology, drug versus control eyes” value in the data set on rabbit eye (0.1 mg 3 times a day for 8 days) was “negligible difference between drug and control eyes”. For the same compound, the Signs of irritation entry in the data set with rabbit eye (1.0 mg and 0.1 mg doses) is “No serious or irreversible signs of irritation”. For the same compound, the “Bulbar redness (points)” value is 0.8 (0.0-1.5) points in the data set with rabbit eye (0.1 mg × 24 (8 days, n = 4)); 1.5 (1.0-2.0) points in the data set with rabbit eye (1 hr. after 0.1 mg (n = 6)); 1.0 (1.0-1.5) points in the data set on rabbit eye (1 hr. after 1.0 mg (n = 3)); 1.0 (0.0-2.0) points in the data set on rabbit eye (24 hr. after 0.1 mg (n = 6)); 1.0 (1.0-1.0) points in the data set with rabbit eye (24 hr. after 1.0 mg (n = 3)). Also, the “Discharge (points)” value in the data set with rabbit eye (0.1 mg × 24 (8 days, n = 4)) is 0.0 (0.0-0.5) points; with rabbit eye (1 hr. after 0.1 mg (n = 6)) it was 0.0 (0.0-1.5) points; in the data set with rabbit eye (1 hr. after 1.0 mg (n = 3)) it was 1.0 (0.0-2.0) points; with rabbit eye (24 hr. after 0.1 mg (n = 6)), 0.0 (0.0-0.0) points; in the data set with rabbit eye (24 hr. after 1.0 mg (n = 3)), 0.3 (0.0-0.8) points.
Take `CC1(C)O[C@@H]2C[C@H]3[C@@H]4CCC5=CC(=O)C=C[C@]5(C)[C@@]4(F)[C@@H](O)C[C@]3(C)[C@]2(C(=O)CO)O1` [Triamcinolone acetonide]: the concentration in solution in the data set “physchem” (solubility) came to 1100 µg/mL (≈ 2.53 mM). Moreover, the “Drug solubility in aqueous randomly methylated β-cyclodextrin” value in data set [3] (Randomly methylated β-cyclodextrin 5% w/v) is 2000 µg/mL. Besides, the “Drug solubility in aqueous γ-cyclodextrin” value in data set [3] (γ-cyclodextrin 5% w/v) worked out at 4400 µg/mL.

In general, solubility refers to how much of the substance goes into solution per volume.
